Laboratory results reported in patent publication US20250320252A1 (The Scripps Research Institute, priority 2021, published 2025).
Read-outs that look alike come from different tables or passages of the source. Numbered stars: 1 amine (or outer) side, 2 acyl side, 3 side chain; on linkers, the order of the positions; unused ones are H or OH. Bridge positions count the residues as written; N and C are the ends. Square brackets hold non-standard residues; d marks the D form. Peptide text beside a SMILES is read from it. X2 = O=C(O)CCCCCCCCCCCCCCCCCCC(=O)N[C@@H](CCCCNC(=O)CCOCCOCCNC(=O)CCOCCOCCNC(=O)CCC(=O)N(CCNC(=O)C[*:1])CCNC(=O)C[*:2])C(=O)O; X1 = O=C(O)CCCCCCCCCCCCCCCCC(=O)N[C@@H](CCCCNC(=O)CCOCCOCCNC(=O)CCOCCOCCNC(=O)CCC(=O)N(CCNC(=O)C[*:1])CCNC(=O)C[*:2])C(=O)O; Aib = CC(C)(N)C(=O)O

Key:
[1] = target: T1, human GIPR (Homo sapiens, UniProt P48546); assay: In vitro receptor activation reporter assay (CRE-Luc), HEK293-GIPR-CRE; type: cell-based
T1 construct: expressed in transfected cells
T1 sequence (P48546 22-466): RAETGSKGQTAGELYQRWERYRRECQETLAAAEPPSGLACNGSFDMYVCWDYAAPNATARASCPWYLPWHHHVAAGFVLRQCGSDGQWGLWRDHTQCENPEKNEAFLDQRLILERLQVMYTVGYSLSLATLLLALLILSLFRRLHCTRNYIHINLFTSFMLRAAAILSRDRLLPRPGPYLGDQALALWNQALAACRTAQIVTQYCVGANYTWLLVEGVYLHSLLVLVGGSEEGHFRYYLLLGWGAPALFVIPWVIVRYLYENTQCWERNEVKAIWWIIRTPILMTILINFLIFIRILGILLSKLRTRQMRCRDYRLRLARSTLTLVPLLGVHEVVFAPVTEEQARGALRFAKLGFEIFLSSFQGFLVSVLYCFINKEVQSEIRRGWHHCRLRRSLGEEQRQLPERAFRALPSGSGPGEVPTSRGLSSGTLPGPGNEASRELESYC
Text: HEK293 cells were infected with lentivirus encoding firefly luciferase gene under the control of cAMP responsive element (CRE) promoter (Qiagen, The Netherlands) and then were selected using 1 g mL^−1 puromycin (Life Technologies, Carlsbad) for 1 week. The surviving cells (referred to as CRE-HEK293) were expanded and then transfected with a G418 selective mammalian expression plasmid encoding human GLP-1R or GIPR. In brief, GLP-1R or GIPR plasmid was transfected into CRE-HEK293 cells using Lipofectamine 2000 and selected with 400 g mL^−1 Geneticin (Life Technologies, Carlsbad, CA). Single colony stable cell line overexpressing CRE-luciferase and GLP-1R or GIPR (HEK293-GLP-1R-CRE or HEK293-GIPR-CRE) was then established for in vitro activity assay.
(§1) The EC50 of each peptide was determined using GraphPad Prism 6 software (GraphPad, San Diego, CA).

[2] = target: T2, human GLP-1R (Homo sapiens, UniProt P43220); assay: In vitro receptor activation reporter assay (CRE-Luc), HEK293-GLP-1R-CRE; type: cell-based
T2 construct: expressed in transfected cells
T2 sequence (P43220 24-463): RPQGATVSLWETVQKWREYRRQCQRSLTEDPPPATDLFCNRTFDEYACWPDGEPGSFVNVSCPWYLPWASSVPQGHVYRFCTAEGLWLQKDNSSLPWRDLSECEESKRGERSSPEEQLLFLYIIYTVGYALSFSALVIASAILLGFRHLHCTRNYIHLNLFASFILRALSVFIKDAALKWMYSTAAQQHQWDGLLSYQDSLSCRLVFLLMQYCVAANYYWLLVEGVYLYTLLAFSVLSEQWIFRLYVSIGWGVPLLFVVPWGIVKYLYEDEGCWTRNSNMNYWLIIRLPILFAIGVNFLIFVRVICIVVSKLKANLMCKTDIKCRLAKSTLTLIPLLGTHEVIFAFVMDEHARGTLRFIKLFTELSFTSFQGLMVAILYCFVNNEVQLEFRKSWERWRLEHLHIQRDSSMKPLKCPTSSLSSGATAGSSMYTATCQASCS
Experimental: as §1
HEK293 cells were infected with lentivirus encoding firefly luciferase gene under the control of cAMP responsive element (CRE) promoter (Qiagen, The Netherlands) and then were selected using 1 g/mL puromycin (Life Technologies, Carlsbad) for 1 week. The surviving cells (referred to as CRE-HEK293) were expanded and then transfected with a G418 selective mammalian expression plasmid encoding human GLP-1R. In brief, GLP-1R plasmid was transfected into CRE-HEK293 cells using Lipofectamine 2000 and selected with 400 g/mL Geneticin (Life Technologies, Carlsbad, CA). Single colony stable cell line overexpressing CRE-luciferase and GLP1R was then established for in vitro activity assay.

[3] = Table 8, read-out: EC50 [nM] GIPR
[4] = Table 8, read-out: EC50 [nM] GLP1R

| SMILES | EC50 ([1]; GIPR (nM) [EC50] 02/19, unnumbered table (Table 10), run 02/19) | EC50 ([2]; GLP1R (nM) [EC50] 02/19, unnumbered table (Table 10), run 02/19) | EC50 ([2]; GLP1R (nM) [EC50] 3/25, unnumbered table (Table 10), run 3/25) | EC50 ([2]; GLP1R (nM) [EC50] 03/26, unnumbered table (Table 10), run 03/26) | EC50 ([2]; GLP1R (nM) [EC50] average, unnumbered table (Table 10), average of runs) | EC50 [1, 3] | EC50 [2, 4] |
| --- | --- | --- | --- | --- | --- | --- | --- |
| CC[C@H](C)[C@H](NC(=O)[C@H](CC(C)C)NC(=O)[C@H](Cc1c[nH]c2ccccc12)NC(=O)[C@H](CC(N)=O)NC(=O)[C@@H](NC(=O)[C@H](Cc1ccccc1)NC(=O)[C@@H]1CSCC(=O)NCCN(C(=O)CCC(=O)NCCOCCOCCC(=O)NCCOCCOCCC(=O)NCCCC[C@H](NC(=O)CCCCCCCCCCCCCCCCCCC(=O)O)C(=O)O)CCNC(=O)CSC[C@H](NC(=O)[C@H](Cc2ccc(O)cc2)NC(=O)[C@@H](NC(=O)[C@H](CO)NC(=O)[C@H](Cc2ccc(O)cc2)NC(=O)[C@H](CC(=O)O)NC(=O)[C@H](CO)NC(=O)[C@@H](NC(=O)[C@H](Cc2ccc(O)cc2)NC(=O)[C@@H](NC(=O)CNC(=O)[C@H](CCC(=O)O)NC(=O)C(C)(C)NC(=O)[C@@H](N)Cc2ccc(O)cc2)[C@@H](C)O)[C@@H](C)O)[C@@H](C)CC)C(=O)N[C@@H](CC(=O)O)C(=O)N[C@@H](CCCCN)C(=O)N[C@@H](CCC(N)=O)C(=O)N[C@@H](C)C(=O)N[C@@H](C)C(=O)NC(C)(C)C(=O)N1)C(C)C)C(=O)N[C@@H](C)C(=O)NCC(=O)NCC(=O)N1CCC[C@H]1C(=O)N[C@@H](CO)C(=O)N[C@@H](CO)C(=O)NCC(=O)N[C@@H](C)C(=O)N1CCC[C@H]1C(=O)N1CCC[C@H]1C(=O)N1CCC[C@H]1C(=O)N[C@@H](CO)C(N)=O [6Y, 271, C(14-21) - C20L5A, YAibEGT-YTSDY-SIYXD-KQAAAib-XFVNW-LIAGG-PSSGA-PPPS-NH2 (where each X is C)] (H-Y[Aib]EGTYTSDYSIYCDKQAA[Aib]CFVNWLIAGGPSSGAPPPS-NH2; linker 14-21 via X2) | 0.5 nM | 0.04 nM | 0.07 nM | 0.07 nM | 0.06 nM | – | – |
| CC[C@H](C)[C@H](NC(=O)[C@H](CC(C)C)NC(=O)[C@H](Cc1c[nH]c2ccccc12)NC(=O)[C@H](CC(N)=O)NC(=O)[C@@H](NC(=O)[C@H](Cc1ccccc1)NC(=O)[C@@H]1CSCC(=O)NCCN(C(=O)CCC(=O)NCCOCCOCCC(=O)NCCOCCOCCC(=O)NCCCC[C@H](NC(=O)CCCCCCCCCCCCCCCCCCC(=O)O)C(=O)O)CCNC(=O)CSC[C@H](NC(=O)[C@H](Cc2ccc(O)cc2)NC(=O)[C@@H](NC(=O)[C@H](CO)NC(=O)[C@@H](NC(=O)[C@H](CC(=O)O)NC(=O)[C@H](CO)NC(=O)[C@@H](NC(=O)[C@H](Cc2ccccc2)NC(=O)[C@@H](NC(=O)CNC(=O)[C@H](CCC(=O)O)NC(=O)C(C)(C)NC(=O)[C@@H](N)Cc2ccc(O)cc2)[C@@H](C)O)[C@@H](C)CC)C(C)C)[C@@H](C)CC)C(=O)N[C@@H](CC(=O)O)C(=O)N[C@@H](CCCCN)C(=O)N[C@@H](CCC(N)=O)C(=O)N[C@@H](C)C(=O)N[C@@H](C)C(=O)NC(C)(C)C(=O)N1)C(C)C)C(=O)N[C@@H](C)C(=O)NCC(=O)NCC(=O)N1CCC[C@H]1C(=O)N[C@@H](CO)C(=O)N[C@@H](CO)C(=O)NCC(=O)N[C@@H](C)C(=O)N1CCC[C@H]1C(=O)N1CCC[C@H]1C(=O)N1CCC[C@H]1C(=O)N[C@@H](CO)C(N)=O [7I, 10V, 27I, C(14-21) - C20L5A, YAibEGT-FISDV-SIYXD-KQAAAib-XFVNW-LIAGG-PSSGA-PPPS-NH2 (where each X is C)] (H-Y[Aib]EGTFISDVSIYCDKQAA[Aib]CFVNWLIAGGPSSGAPPPS-NH2; linker 14-21 via X2) | – | – | – | – | – | 303 nM | ~13700 nM |
| CC[C@H](C)[C@H](NC(=O)[C@H](CC(C)C)NC(=O)[C@H](Cc1c[nH]c2ccccc12)NC(=O)[C@H](CC(N)=O)NC(=O)[C@@H](NC(=O)[C@H](Cc1ccccc1)NC(=O)[C@@H]1CSCC(=O)NCCN(C(=O)CCC(=O)NCCOCCOCCC(=O)NCCOCCOCCC(=O)NCCCC[C@H](NC(=O)CCCCCCCCCCCCCCCCC(=O)O)C(=O)O)CCNC(=O)CSC[C@H](NC(=O)[C@H](Cc2ccc(O)cc2)NC(=O)[C@@H](NC(=O)[C@H](CO)NC(=O)[C@@H](NC(=O)[C@H](CC(=O)O)NC(=O)[C@H](CO)NC(=O)[C@@H](NC(=O)[C@H](Cc2ccccc2)NC(=O)[C@@H](NC(=O)CNC(=O)[C@H](CCC(=O)O)NC(=O)C(C)(C)NC(=O)[C@@H](N)Cc2ccc(O)cc2)[C@@H](C)O)[C@@H](C)CC)C(C)C)[C@@H](C)CC)C(=O)N[C@@H](CC(=O)O)C(=O)N[C@@H](CCCCN)C(=O)N[C@@H](CCC(N)=O)C(=O)N[C@@H](C)C(=O)N[C@@H](C)C(=O)NC(C)(C)C(=O)N1)C(C)C)C(=O)N[C@@H](C)C(=O)NCC(=O)NCC(=O)N1CCC[C@H]1C(=O)N[C@@H](CO)C(=O)N[C@@H](CO)C(=O)NCC(=O)N[C@@H](C)C(=O)N1CCC[C@H]1C(=O)N1CCC[C@H]1C(=O)N1CCC[C@H]1C(=O)N[C@@H](CO)C(N)=O [7I, 10V, 27I, C(14-21) - L5A, YAibEGT-FISDV-SIYXD-KQAAAib-XFVNW-LIAGG-PSSGA-PPPS-NH2 (where each X is C)] (H-Y[Aib]EGTFISDVSIYCDKQAA[Aib]CFVNWLIAGGPSSGAPPPS-NH2; linker 14-21 via X1) | – | – | – | – | – | 12.5 nM | 83.9 nM |
| CC[C@H](C)[C@H](NC(=O)[C@H](CC(C)C)NC(=O)[C@H](Cc1c[nH]c2ccccc12)NC(=O)[C@H](CC(N)=O)NC(=O)[C@@H](NC(=O)[C@H](Cc1ccccc1)NC(=O)[C@@H]1CSCC(=O)NCCN(C(=O)CCC(=O)NCCOCCOCCC(=O)NCCOCCOCCC(=O)NCCCC[C@H](NC(=O)CCCCCCCCCCCCCCCCC(=O)O)C(=O)O)CCNC(=O)CSC[C@H](NC(=O)[C@H](Cc2ccc(O)cc2)NC(=O)[C@@H](NC(=O)[C@H](CO)NC(=O)[C@H](Cc2ccc(O)cc2)NC(=O)[C@H](CC(=O)O)NC(=O)[C@H](CO)NC(=O)[C@@H](NC(=O)[C@H](Cc2ccccc2)NC(=O)[C@@H](NC(=O)CNC(=O)[C@H](CCC(=O)O)NC(=O)C(C)(C)NC(=O)[C@@H](N)Cc2ccc(O)cc2)[C@@H](C)O)[C@@H](C)O)[C@@H](C)CC)C(=O)N[C@@H](CC(=O)O)C(=O)N[C@@H](CCCCN)C(=O)N[C@@H](CCC(N)=O)C(=O)N[C@@H](C)C(=O)N[C@@H](C)C(=O)NC(C)(C)C(=O)N1)C(C)C)C(=O)N[C@@H](C)C(=O)NCC(=O)NCC(=O)N1CCC[C@H]1C(=O)N[C@@H](CO)C(=O)N[C@@H](CO)C(=O)NCC(=O)N[C@@H](C)C(=O)N1CCC[C@H]1C(=O)N1CCC[C@H]1C(=O)N1CCC[C@H]1C(=O)N[C@@H](CO)C(N)=O [27I, C(14-21) - L5A, YAibEGT-FTSDY-SIYXD-KQAAAib-XFVNW-LIAGG-PSSGA-PPPS-NH2 (where each X is C)] | – | – | – | – | – | 0.03 nM | 0.04 nM |
